According to patent publication US5110927A (The United States of America as represented by the …, priority 1987, dated 1992):
Entries after “also recorded” stand apart in the source; their conditions may differ.

Target: α1-adrenoceptor (3H-prazosin binding sites)
Experiment: displacement of 3H-prazosin from rat cerebral cortical (brain) membranes
Details: for -logIC50: 3H-prazosin displacement, rat cerebral cortical membranes; for affinity to alpha1-adrenoceptors (in words): discussion of Table 1
Description: IC50 values and apparent Ki values were determined as in Table 1.
Rat brain cortices were homogenized in approximately 30 volumes/wet weight of 50 mM Tris buffer, pH 7.4, containing 10 mM MgCl2 by use of a Polytron (setting 6 for 10 seconds). It should be noted that this buffer was used throughout the experimental procedures. The homogenate was centrifuged at 48,000×g for 10 minutes in a Sorvall RC-5B centrifuge. The resulting pellet was resuspended in buffer by use of a Polytron and recentrifuged. This process was repeated and the pellet was resuspended in approximately 200 volumes for affinity studies or 20 volumes for irreversibility experiments.
Specific binding was defined as the difference between total binding (measured in the absence of any ligand) and non-specific binding (measured in the presence of 10 microM phentolamine). Duplicate tubes were used for each condition. Reaction tubes were incubated for 30 minutes at 30° C., then diluted to 5 ml with ice cold buffer, and filtered under reduced pressure through Whatman GF/C glass fiber filters. The reaction tubes and filters were washed three additional times with buffer.

In the case of `COc1cc2nc(N3CCN(C(=S)Nc4ccc(N=[N+]=[N-])cc4)CC3)nc(N)c2cc1OC` [Compound 33], the “-logIC50” value is reported as 7.70 and the “affinity to alpha1-adrenoceptors (in words)” value (“affinity” below) is reported as “decrease”.
For `COc1cc2nc(N3CCN(S(=O)(=O)c4cccs4)CC3)nc(N)c2cc1OC` [Compound 44], the “-logIC50” value was 7.47 and the “affinity” value was “low affinity”.
With `COc1cc2nc(N3CCN(C(=O)C=Cc4ccc(Cl)cc4)CC3)nc(N)c2cc1OC` [Compound 11] the “-logIC50” value was 7.90.
In the case of `COc1cc2nc(N3CCN(C(=O)[C@@H]4O[C@H]4c4ccccc4)CC3)nc(N)c2cc1OC` (relative stereo) [Compound 26], the “-logIC50” value is reported as 7.45 and the “affinity” value is reported as “two orders of magnitude lower than that of cyclopropane”.
`COc1cc2nc(N3CCN(C(=O)COc4ccccc4)CC3)nc(N)c2cc1OC` [Compound 8] was tested, and the “-logIC50” value was 7.90 and the “affinity” value was “affinity is considerably decreased”.
With `COc1cc2nc(N3CCN(C(=O)/C=C/c4ccc(N=[N+]=[N-])cc4)CC3)nc(N)c2cc1OC` [Compound 16] the “-logIC50” value was 9.49 and the “affinity” value was “single exception; also recorded: improved the affinity”.
In the case of `COc1cc2nc(N3CCN(C(=O)CCc4ccccc4)CC3)nc(N)c2cc1OC` [Compound 7], the “-logIC50” value is reported as 8.47 and the “affinity” value is reported as “affinity is considerably decreased”.
`COc1cc2nc(N3CCN(C(=O)C=Cc4c(F)c(F)c(F)c(F)c4F)CC3)nc(N)c2cc1OC` [Compound 14] was tested, and the “-logIC50” value was 6.94.
`COc1cc2nc(N3CCN(C(=O)C#Cc4ccccc4)CC3)nc(N)c2cc1OC` [Compound 28] was tested, and the “-logIC50” value was 7.92.
With `COC(=O)/C=C/C=C/C(=O)N1CCN(c2nc(N)c3cc(OC)c(OC)cc3n2)CC1` [Compound 5] the “-logIC50” value was 8.01.
For `COc1cc2nc(N3CCN(C(=S)Nc4ccc(N=C=S)cc4)CC3)nc(N)c2cc1OC` [Compound 34], the “-logIC50” value was 7.18.
In the case of `COc1cc2nc(N3CCN(C(=O)Nc4ccccc4)CC3)nc(N)c2cc1OC` [Compound 39], the “-logIC50” value is reported as 7.56 and the “affinity” value is reported as “considerably decreased the affinity”.
In the case of `COC(=O)C=Cc1ccc(NC(=S)N2CCN(c3nc(N)c4cc(OC)c(OC)cc4n3)CC2)cc1` [Compound 37], the “-logIC50” value is reported as 7.43.
For `COc1cc2nc(N3CCN(C(=O)C=Cc4ccc(N=C=S)cc4)CC3)nc(N)c2cc1OC` [Compound 17], the “-logIC50” value was 6.99.
With `COc1cc2nc(N3CCN(C(=O)C4CC5C=CC4C5)CC3)nc(N)c2cc1OC` (stereo not drawn) [Compound 46] the “-logIC50” value was 8.61 and the “affinity” value was “high affinity”.
In the case of `COc1cc2nc(N3CCN(C(=S)Nc4c(F)c(F)c(F)c(F)c4F)CC3)nc(N)c2cc1OC` [Compound 32], the “-logIC50” value is reported as 7.80.
For `COC(=O)/C=C/C(=O)Nc1ccc(/C=C/C(=O)N2CCN(c3nc(N)c4cc(OC)c(OC)cc4n3)CC2)cc1` [Compound 19], the “-logIC50” value was 7.79.
`COc1cc2nc(N3CCN(C(=S)NC4CCCCC4)CC3)nc(N)c2cc1OC` [Compound 30] was tested, and the “-logIC50” value was 8.27 and the “affinity” value was “decrease”.
In the case of `COc1cc2nc(N3CCN(C(=S)Nc4ccc(F)cc4)CC3)nc(N)c2cc1OC` [Compound 31], the “-logIC50” value is reported as 8.62.
In the case of `COc1ccc(/C=C/C(=O)N2CCN(c3nc(N)c4cc(OC)c(OC)cc4n3)CC2)cc1` [Compound 15], the “-logIC50” value is reported as 8.47.
`COc1cc2nc(N3CCN(C(=O)n4ccnc4)CC3)nc(N)c2cc1OC` [Compound 2] was tested, and the “-logIC50” value was 7.97 and the “affinity” value was “low affinity”.
`COc1cc2nc(N3CCN(C(=S)Nc4ccc(NC(=S)N5CC5)cc4)CC3)nc(N)c2cc1OC` [Compound 36] was tested, and the “-logIC50” value was 7.01.
In the case of `COc1cc2nc(N3CCN(C(=O)/C=C/c4ccc(NC(=O)CBr)cc4)CC3)nc(N)c2cc1OC` [Compound 18], the “-logIC50” value is reported as 6.97.
With `COc1cc2nc(N3CCN(C(=O)C(=Cc4ccccc4)c4ccccc4)CC3)nc(N)c2cc1OC` [Compound 22] the “-logIC50” value was 7.51.
In the case of `COc1cc2nc(N3CCN(C(=S)Nc4cccc(N=C=S)c4)CC3)nc(N)c2cc1OC` [Compound 35], the “-logIC50” value is reported as 7.30.
`COc1cc2nc(N3CCN(C(=O)c4ccc(N=C=S)c(I)c4)CC3)nc(N)c2cc1OC` [Compound 41] was tested, and the “-logIC50” value was 7.29 and the “affinity” value was “much lower affinity”.
In the case of `COc1cc2nc(N3CCN(C(=O)C(F)=Cc4ccccc4)CC3)nc(N)c2cc1OC` [Compound 20], the “-logIC50” value is reported as 7.89.
With `COc1cc2nc(N3CCN(C(=O)C=Cc4cccc(F)c4)CC3)nc(N)c2cc1OC` [Compound 13] the “-logIC50” value was 7.68.
`COc1cc2nc(N3CCN(C(=S)Nc4cccc5ccccc45)CC3)nc(N)c2cc1OC` [Compound 38] was tested, and the “-logIC50” value was 7.41.
`COc1cc2nc(N3CCN(C(=O)c4cc(Cl)nc(Cl)n4)CC3)nc(N)c2cc1OC` [Compound 45] was tested, and the “-logIC50” value was 7.49 and the “affinity” value was “failed to yield an active compound”.
`COc1cc2nc(N3CCN(C(=O)C(=Cc4ccccc4)N=[N+]=[N-])CC3)nc(N)c2cc1OC` [Compound 21] was tested, and the “-logIC50” value was 8.06.
With `COc1cc2nc(N3CCN(C(=O)C=Cc4ccc(Br)cc4)CC3)nc(N)c2cc1OC` [Compound 12] the “-logIC50” value was 7.10.
In the case of `COC(=O)/C=C/C(=O)N1CCN(c2nc(N)c3cc(OC)c(OC)cc3n2)CC1` [Compound 4], the “-logIC50” value is reported as 9.15.
For `COc1cc2nc(N3CCN(S(=O)(=O)c4ccc(C)cc4)CC3)nc(N)c2cc1OC` [Compound 43], the “-logIC50” value was 7.94 and the “affinity” value was “low affinity”.
`COc1cc2nc(N3CCN(C(=O)c4cccc(CCl)c4)CC3)nc(N)c2cc1OC` [Compound 40] was tested, and the “-logIC50” value was 7.93.
With `COc1cc2nc(N3CCN(C(=O)/C=C/C(=O)c4ccccc4)CC3)nc(N)c2cc1OC` [Compound 23] the “-logIC50” value was 7.06 and the “affinity” value was “reduced affinity considerably”.
`COc1cc2nc(N3CCN(C(=O)C4C(C=C(C)C)C4(C)C)CC3)nc(N)c2cc1OC` (stereo not drawn) [Compound 27] was tested, and the “-logIC50” value was 7.15 and the “affinity” value was “very low affinity”.
With `COc1cc2nc(N3CCN(C(=O)[C@@H]4C[C@H]4c4ccccc4)CC3)nc(N)c2cc1OC` (relative stereo) [Compound 25] the “-logIC50” value was 9.29 and the “affinity” value was “affinity similar to that of the cinnamoyl compound No. 9”.
For `COc1cc2nc(N3CCN(C(=O)/C=C/c4ccc(F)cc4)CC3)nc(N)c2cc1OC` [Compound 10], the “-logIC50” value was 7.92.
With `COc1cc2nc(N3CCN(C(=S)Nc4ccccc4)CC3)nc(N)c2cc1OC` [Compound 29] the “affinity” value was “much higher affinity for alpha1 -adrenoceptors than prazosin”.
`COC(=O)/C=C/C(=O)Nc1ccc(CCCCC(=O)N2CCN(c3nc(N)c4cc(OC)c(OC)cc4n3)CC2)cc1` [Compound 42] was tested, and the “-logIC50” value was 8.07.
